pIC50: −log10 of the molar value.
molecular target: T1, MMP-9 (Homo sapiens, UniProt P14780); assay: Assay for inhibitory activity against MMP-9; assay type: biochemical
T1 construct: made in house; host or cells: HT1080 human fibrosarcoma cells; endogenous protein secreted after TPA treatment and purified from conditioned medium
Experimental: (§1) Assay for Inhibitory Activities of MMP-9 and MMP-2
(§2) The enzymatic activity was analyzed on the method described by Knight, C. G., et al. (C. Graham Knight., Frances Willenbrock and Gillian Murphy: A novel coumarin-labelled peptide for sensitive continuous assays of the matrix metalloproteinases. FEBS Lett., 296 (1992) 263-266).
MMP-9 was purified by using a combination of procedures described in previous reports as follows. Yasunori Okada, Yukio Gonoji, Katsumi Naka, Katsuro Tomita, Isao Nakanishi, Kazushi Iwata and Taro Hayakawa: Matrix metalloproteinase 9 (92-kDa gelatinase/type IV collagenase) from HT1080 human fibrosarcoma cells. Purification and activation of the precursor and enzymic properties. J. Biol. Chem., 267 (1992) 21712-21719. Yasunori Okada, Tatsuhisa Morodomi, Jan J, Enghild, Ko Suzuki, Atsushi Yasui, Isao Nakanishi, Guy Salvesen and Hideaki Nagase: Matrix metalloproteinase 2 from human rheumatoid synovial fibroblasts. Purification and activation of the precursor and enzymic properties. Eur. J. Biochem. 194 (1990) 721-730. Robin V Ward, Rosalind M Hembry, John J Reynolds and Gillian Murphy: The purification of tissue inhibitor of metalloproteinase-2 from its 72 kDa progelatinase complex. Biochem. J. 278 (1991) 179-187.
Briefly, human fibrosarcoma ATCC HT1080 cell line was cultured to confluent in Dulbecco's Modified Medium (DMEM) containing 10% fetal-calf serum at 37° C. for 48 hours. Subsequently, the medium of confluent culture was changed to serum-free DMEM medium. To obtain MMP-9, Phorbol-12-myristate-13-acetate (TPA) must be added to this serum-free DMEM medium at a concentration of 50 ng/ml. The TPA treated medium was centrifuged at 3000 rpm for 15 min and the supernatant was concentrated to 450 ml by a Toyo-Roshi UP-20 apparatus with an ultrafiltration membrane. Then, proMMP-9 in this concentrated solution was purified by using columns of Gelatin-Sepharose and Concanavalin A-Sepharose. The pool containing proMMP-9 was dialyzed, concentrated (Toyo-Roshi UP-20) and applied to columns of Sephacryl S-200 and Green A matrix for the separation from TIMPs. The obtained proMMP-9 fraction was activated by TPCK-Trypsin (final conc. […] reaction mix.) for the assay.
(§3) MOCAc-Pro-Leu-Gly-Leu-A2pr(Dnp)-Ala-Arg-NH2 as a substrate was purchased from Petide Institute(Osaka pref., Japan). This substrate was dissolved in DMSO at a concentration of 1 mM.
(§4) Reaction buffer consists of 50 mM Tris-HCl buffer (pH 7.5) containing 10 mM CaCl2, 0.3 M NaCl, 0.005% Brij35 and 0.01% NaN3.
Assay Method of Inhibitory Activity Against MMP-9:
1.0 μl of a tested compound in DMSO is added to 48.0 μl of a reaction buffer containing 0.08 μl of an enzyme solution. After standing for 60 minutes at room temperature, the reaction was started by adding 1.0 μl of a substrate solution. After incubation for 60 minutes at room temperature, 100 μl of 3% (v/v) AcOH for reaction stopping and measured a fluorescence with excitation and emission at 320 nm and 405 nm, respectively (Spectrophotofluorometer; Fluoroscan Ascent (Labsystem)).
(§5) The measurement of the inhibitory activities (IC50) was carried out in a following four methods;
(§6) A) Reaction with substrate, enzyme and inhibitor
(§7) B) Reaction with substrate and inhibitor, without enzyme
(§8) C) Reaction with substrate and enzyme, without inhibitor
(§9) D) Reaction with substrate only
(§10) IC50 values were calculated by using a following formula and each fluorescence values of above four methods (A to D).
(§11) % inhibition={1−(A−B)/(C−D)}×100
(§12) IC50 means the concentration required to inhibit 50% of the enzyme activity.

T1 sequence (P14780 107-707 limits assumed): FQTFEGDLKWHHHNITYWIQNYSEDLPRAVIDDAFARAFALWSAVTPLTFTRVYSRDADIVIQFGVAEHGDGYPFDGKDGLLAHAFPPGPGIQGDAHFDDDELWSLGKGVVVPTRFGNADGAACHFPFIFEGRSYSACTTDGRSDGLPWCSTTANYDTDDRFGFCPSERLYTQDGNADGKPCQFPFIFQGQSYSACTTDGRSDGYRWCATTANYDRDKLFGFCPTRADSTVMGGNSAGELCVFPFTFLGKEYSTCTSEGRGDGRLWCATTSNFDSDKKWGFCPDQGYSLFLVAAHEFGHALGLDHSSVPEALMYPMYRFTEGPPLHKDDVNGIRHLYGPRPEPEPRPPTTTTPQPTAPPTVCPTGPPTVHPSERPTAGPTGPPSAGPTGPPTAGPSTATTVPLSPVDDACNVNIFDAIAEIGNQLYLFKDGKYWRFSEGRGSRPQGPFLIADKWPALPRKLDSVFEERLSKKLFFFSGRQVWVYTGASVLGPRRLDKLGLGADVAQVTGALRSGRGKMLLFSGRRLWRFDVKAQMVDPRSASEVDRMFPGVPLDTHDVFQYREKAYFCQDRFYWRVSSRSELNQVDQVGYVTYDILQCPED

Structure (SMILES) | pIC50
CC(C)[C@@H](NS(=O)(=O)c1ccc(-c2nnn(-c3ccc(F)cc3)n2)s1)C(=O)O [Compound 97] | 6.87
CC(C)[C@@H](NS(=O)(=O)c1ccc(-c2ncc(-c3ccccc3)o2)s1)C(=O)O [Compound 98] | 6.10
Cc1ccc(-c2ccc(-c3ccc(S(=O)(=O)N[C@@H](C(=O)O)C(C)C)cc3)s2)cc1 [Compound 103] | 7.56
O=C(O)[C@@H](Cc1ccccc1)NS(=O)(=O)c1ccc(-n2nnc(-c3ccc(F)cc3)n2)cc1 [Compound 105] | 6.52
CC(C)[C@@H](NS(=O)(=O)c1ccc(-n2nnc(-c3ccc(F)cc3)n2)cc1)C(=O)O [Compound 106] | 6.98
CCc1ccc(-c2nnn(-c3ccc(S(=O)(=O)N[C@@H](Cc4ccccc4)C(=O)O)cc3)n2)cc1 [Compound 110] | 7.02
O=C(O)[C@@H](Cc1c[nH]c2ccccc12)NS(=O)(=O)c1ccc(-n2nnc(-c3ccc(F)cc3)n2)cc1 [Compound 111] | 6.98
CCc1ccc(-c2nnn(-c3ccc(S(=O)(=O)N[C@H](CC(C)C)C(=O)O)cc3)n2)cc1 [Compound 113] | 7.14
O=C(O)[C@@H](Cc1ccccc1)NS(=O)(=O)c1ccc(-n2nnc(-c3ccccc3)n2)cc1 [Compound 115] | 5.34
CCc1ccc(-c2nnn(-c3ccc(S(=O)(=O)N[C@H](C)C(=O)O)cc3)n2)cc1 [Compound 117] | 7.51
CCOc1ccc(-c2nnn(-c3ccc(S(=O)(=O)N[C@@H](C(=O)O)C(C)C)cc3)n2)cc1 [Compound 118] | 7.21
CC(C)[C@@H](NS(=O)(=O)c1ccc(-n2nnc(-c3ccc(N(C)C)cc3)n2)cc1)C(=O)O [Compound 119] | 7.34
CSc1ccc(-c2nnn(-c3ccc(S(=O)(=O)N[C@@H](C(=O)O)C(C)C)cc3)n2)cc1 [Compound 120] | 8.24

Further compounds by rising pIC50, results first:

pIC50 | Structure (SMILES)
6.83 | CCCCc1ccc(-c2nnn(-c3ccc(S(=O)(=O)N[C@@H](C(=O)O)C(C)C)cc3)n2)cc1 [Compound 121]
6.90 | CCc1ccc(-c2nnn(-c3ccc(S(=O)(=O)N[C@H](C(=O)O)C(C)C)cc3)n2)cc1 [Compound 112]
7.44 | Cc1ccc(-n2nnc(-c3ccc(S(=O)(=O)N[C@@H](C(=O)O)C(C)C)s3)n2)cc1 [Compound 96]
8.00 | Cc1ccc(C#Cc2ccc(S(=O)(=O)N[C@H](Cc3ccccc3)C(=O)O)s2)s1 [Compound 87]
8.08 | CCc1ccc(-c2nnn(-c3ccc(S(=O)(=O)N[C@@H](C(=O)O)C(C)C)cc3)n2)cc1 [Compound 107]

molecular target: T2, MMP-2 (Homo sapiens, UniProt P08253); assay: Assay for inhibitory activity against MMP-2; assay type: biochemical
T2 construct: purchased Yagai (Yamagata pref., Japan)
T2 sequence (P08253 110-660): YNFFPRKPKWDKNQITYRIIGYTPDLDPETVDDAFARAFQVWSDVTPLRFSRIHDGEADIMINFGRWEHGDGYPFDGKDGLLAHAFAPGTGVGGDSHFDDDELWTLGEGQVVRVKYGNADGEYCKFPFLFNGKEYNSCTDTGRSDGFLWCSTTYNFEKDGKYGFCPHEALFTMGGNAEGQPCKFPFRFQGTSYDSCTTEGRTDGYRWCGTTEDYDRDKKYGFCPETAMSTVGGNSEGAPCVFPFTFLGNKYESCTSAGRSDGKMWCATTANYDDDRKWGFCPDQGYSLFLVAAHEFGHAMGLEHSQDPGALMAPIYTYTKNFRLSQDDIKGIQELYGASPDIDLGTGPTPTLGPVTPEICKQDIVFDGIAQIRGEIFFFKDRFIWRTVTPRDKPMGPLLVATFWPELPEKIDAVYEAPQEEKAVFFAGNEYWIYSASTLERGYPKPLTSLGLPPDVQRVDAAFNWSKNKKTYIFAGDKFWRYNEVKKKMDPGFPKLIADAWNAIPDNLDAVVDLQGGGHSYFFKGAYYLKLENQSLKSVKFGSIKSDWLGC
Experimental: as §1, §2
MMP-2 was purchased from Yagai (Yamagata pref., Japan).
as §3, §4
Assay Method of Inhibitory Activity Against MMP-2:
1.0 μl of a tested compound in DMSO is added to 48.0 μl of a reaction buffer containing 0.05 μl of an enzyme solution. After standing for 60 minutes at room temperature, the reaction was started by adding 1.0 μl of a substrate solution. After incubation for 60 minutes at room temperature, 100 μl of 3% (v/v) AcOH for reaction stopping and measured a fluorescence with excitation and emission at 320 nm and 405 nm, respectively (Spectrophotofluorometer; Fluoroscan Ascent (Labsystem)).
as §5, §6, §7, §8, §9, §10, §11, §12

Structure (SMILES) | pIC50
CC(C)[C@@H](NS(=O)(=O)c1ccc(-c2nnn(-c3ccc(F)cc3)n2)s1)C(=O)O [Compound 97] | 7.81
CC(C)[C@@H](NS(=O)(=O)c1ccc(-c2ncc(-c3ccccc3)o2)s1)C(=O)O [Compound 98] | 7.02
Cc1ccc(-c2ccc(-c3ccc(S(=O)(=O)N[C@@H](C(=O)O)C(C)C)cc3)s2)cc1 [Compound 103] | 8.21
O=C(O)[C@@H](Cc1ccccc1)NS(=O)(=O)c1ccc(-n2nnc(-c3ccc(F)cc3)n2)cc1 [Compound 105] | 7.38
CC(C)[C@@H](NS(=O)(=O)c1ccc(-n2nnc(-c3ccc(F)cc3)n2)cc1)C(=O)O [Compound 106] | 7.55
CCc1ccc(-c2nnn(-c3ccc(S(=O)(=O)N[C@@H](Cc4ccccc4)C(=O)O)cc3)n2)cc1 [Compound 110] | 7.59
O=C(O)[C@@H](Cc1c[nH]c2ccccc12)NS(=O)(=O)c1ccc(-n2nnc(-c3ccc(F)cc3)n2)cc1 [Compound 111] | 7.97
CCc1ccc(-c2nnn(-c3ccc(S(=O)(=O)N[C@H](CC(C)C)C(=O)O)cc3)n2)cc1 [Compound 113] | 8.24
O=C(O)[C@@H](Cc1ccccc1)NS(=O)(=O)c1ccc(-n2nnc(-c3ccccc3)n2)cc1 [Compound 115] | 6.74
CCc1ccc(-c2nnn(-c3ccc(S(=O)(=O)N[C@H](C)C(=O)O)cc3)n2)cc1 [Compound 117] | 8.58
CCOc1ccc(-c2nnn(-c3ccc(S(=O)(=O)N[C@@H](C(=O)O)C(C)C)cc3)n2)cc1 [Compound 118] | 8.67
CC(C)[C@@H](NS(=O)(=O)c1ccc(-n2nnc(-c3ccc(N(C)C)cc3)n2)cc1)C(=O)O [Compound 119] | 8.77
CSc1ccc(-c2nnn(-c3ccc(S(=O)(=O)N[C@@H](C(=O)O)C(C)C)cc3)n2)cc1 [Compound 120] | 9.04

Next, values leading:

pIC50 | Structure (SMILES)
9.25 | CCCCc1ccc(-c2nnn(-c3ccc(S(=O)(=O)N[C@@H](C(=O)O)C(C)C)cc3)n2)cc1 [Compound 121]
7.55 | CCc1ccc(-c2nnn(-c3ccc(S(=O)(=O)N[C@H](C(=O)O)C(C)C)cc3)n2)cc1 [Compound 112]
8.82 | Cc1ccc(-n2nnc(-c3ccc(S(=O)(=O)N[C@@H](C(=O)O)C(C)C)s3)n2)cc1 [Compound 96]
8.43 | Cc1ccc(C#Cc2ccc(S(=O)(=O)N[C@H](Cc3ccccc3)C(=O)O)s2)s1 [Compound 87]
8.45 | CCc1ccc(-c2nnn(-c3ccc(S(=O)(=O)N[C@@H](C(=O)O)C(C)C)cc3)n2)cc1 [Compound 107]

system: not given; assay: not given

Structure (SMILES) | melting point [°C]
CC(C)[C@@H](NS(=O)(=O)c1ccc(-c2nnn(-c3ccc(F)cc3)n2)s1)C(=O)O [Compound 97] | 184 to 186
CC(C)[C@@H](NS(=O)(=O)c1ccc(-c2ncc(-c3ccccc3)o2)s1)C(=O)O [Compound 98] | 220 to 223
O=C(O)[C@@H](Cc1ccccc1)NS(=O)(=O)c1ccc(-n2nnc(-c3ccc(F)cc3)n2)cc1 [Compound 105] | 190 to 192
CC(C)[C@@H](NS(=O)(=O)c1ccc(-n2nnc(-c3ccc(F)cc3)n2)cc1)C(=O)O [Compound 106] | 204 to 205
CCc1ccc(-c2nnn(-c3ccc(S(=O)(=O)N[C@@H](Cc4ccccc4)C(=O)O)cc3)n2)cc1 [Compound 110] | 188 to 190
O=C(O)[C@@H](Cc1c[nH]c2ccccc12)NS(=O)(=O)c1ccc(-n2nnc(-c3ccc(F)cc3)n2)cc1 [Compound 111] | 113 to 115
CCc1ccc(-c2nnn(-c3ccc(S(=O)(=O)N[C@H](CC(C)C)C(=O)O)cc3)n2)cc1 [Compound 113] | 153 to 154
O=C(O)[C@@H](Cc1ccccc1)NS(=O)(=O)c1ccc(-n2nnc(-c3ccccc3)n2)cc1 [Compound 115] | 191 to 192
CCc1ccc(-c2nnn(-c3ccc(S(=O)(=O)N[C@H](C)C(=O)O)cc3)n2)cc1 [Compound 117] | 155 to 157
CCOc1ccc(-c2nnn(-c3ccc(S(=O)(=O)N[C@@H](C(=O)O)C(C)C)cc3)n2)cc1 [Compound 118] | 187 to 189
CC(C)[C@@H](NS(=O)(=O)c1ccc(-n2nnc(-c3ccc(N(C)C)cc3)n2)cc1)C(=O)O [Compound 119] | 185 to 188
CSc1ccc(-c2nnn(-c3ccc(S(=O)(=O)N[C@@H](C(=O)O)C(C)C)cc3)n2)cc1 [Compound 120] | 194 to 196

Other lines, results leading:

melting point [°C] | Structure (SMILES)
191 to 193 | CCCCc1ccc(-c2nnn(-c3ccc(S(=O)(=O)N[C@@H](C(=O)O)C(C)C)cc3)n2)cc1 [Compound 121]
179 to 181 | CCc1ccc(-c2nnn(-c3ccc(S(=O)(=O)N[C@H](C(=O)O)C(C)C)cc3)n2)cc1 [Compound 112]
178 to 179 | Cc1ccc(-n2nnc(-c3ccc(S(=O)(=O)N[C@@H](C(=O)O)C(C)C)s3)n2)cc1 [Compound 96]
158 to 160 | Cc1ccc(C#Cc2ccc(S(=O)(=O)N[C@H](Cc3ccccc3)C(=O)O)s2)s1 [Compound 87]
186 to 187 | CCc1ccc(-c2nnn(-c3ccc(S(=O)(=O)N[C@@H](C(=O)O)C(C)C)cc3)n2)cc1 [Compound 107]
